Values joined by “and” are separate entries in the source; they are usually repeats but may differ in a detail not shown here. Identical values can stand only once.
How the values were obtained:
type II diabetics = assay: Short-term experiments with alpha-glucosidase inhibitors and bulk materials: blood sugar increase after test breakfast; conditions: for action compared with bulk material: levelling of blood sugar increase after eating; for Hypoglycemia, MG 100, mean value: mean of 6 cases
Protocol: After measurement of the fasting blood sugar in the morning, 20 type II diabetics received a test breakfast (75 g of white bread, 20 g of butter, 40 g of jam or, as a sugar-free variant, 75 g of white bread, 20 g of butter and 40 g of cheese). On the control days, before the test breakfast 75 ml of yoghurt were given, and on the test days the various bulk materials were given in 75 ml of yoghurt. […] After the test breakfast, the blood sugar values were measured at ½ to 1 hour intervals for 2-4 hours. Each short-term experiment was carried out two to three times with the individual subjects. The respective average values are indicated.
The basis for the evaluation is the graphic representation of the blood sugar values as curves. The increasing phase of the blood sugar lasting 1-2 hours is determined planimetrically and considered as a measure of the lower limit of glucose absorption. In the first hour after the test breakfast, under physical quasi-resting conditions the increase in the blood sugar curve ought to reflect the intestinal glucose absorption into the blood almost unadulteratedly on the morning of the experiment in the diabetic differently from in the healthy person. Beyond the first hour, even in most type II diabetics an insulin response commences more or less clearly which levels off the blood sugar increase, or conversely in any case leads to a corresponding underestimation of the glucose absorption. […] The planimetric evaluation of all curves is then extended until achieving the peak of the last curve. […] For practical reasons, we compare the increasing phases of the blood sugar curves under the various experimental conditions (control, after bulk material, in the later experiments also after alpha-glucosidase inhibitors) with one another and calculate from this the degree of hypoglycemia based on the control curve. […] The statistical evaluation, which is possible only in the short-term experiments on account of the amounts of data, is carried out using the student's t test in a paired comparison.
21 patients were investigated: 10 each received acarbose and miglitol, 1 patient first acarbose and then miglitol. The individual dose used was 25-100 mg.
Immediately before the test meals described above, the subjects received either a) 75 ml of yoghurt (control experiment) or b) bulk material in yoghurt (bulk curve) or c) a tablet of acarbose or miglitol and then 75 ml of yoghurt (alpha-GI curve) or d) this medicament 5 minutes before taking bulk material in yoghurt (bulk-plus alpha-GI curve). As described, the blood sugar values were determined before and for 3 hours after the test meal.

normal persons = assay: Side effects in normal persons after 50-75 g of sucrose instead of test breakfast; format: in vivo, human; conditions: 100 mg
[1] = 50 mg on its own (acarbose 2 cases, miglitol 8 cases)

CC1OC(OC2C(CO)OC(OC3C(CO)OC(O)C(O)C3O)C(O)C2O)C(O)C(O)C1NC1C=C(CO)[C@@H](O)[C@H](O)[C@H]1O (stereo partly shown) [AB, acarbose]
concomitant symptoms (type II diabetics; [1]): no clear concomitant symptoms
Hypoglycemia (decrease in the blood sugar increase after a test breakfast), Alpha-GI (type II diabetics; AB 50 mg, individual patient): 42% and 50%
Hypoglycemia (decrease in the blood sugar increase after a test breakfast), Alpha-GI (type II diabetics; AB 100 mg, individual patient): 41% and 63% (2×) and 56% and 65% and 6% and 55% and 39% and 58% and 59%
action compared with bulk material (type II diabetics): considerably stronger action than bulk material
symptoms after 50-75 g of sucrose (normal persons): abdominal pain and diarrhea occurred

OCCN1C[C@H](O)[C@@H](O)[C@H](O)[C@H]1CO [MG, miglitol]
concomitant symptoms (type II diabetics; 25 mg on its own (5 cases)): no clear concomitant symptoms
concomitant symptoms (type II diabetics; [1]): no clear concomitant symptoms
Hypoglycemia (decrease in the blood sugar increase after a test breakfast), Alpha-GI (type II diabetics; MG 25 mg, individual patient): 27% and 47% and 12% and 53% and 49% and 24%
Hypoglycemia (decrease in the blood sugar increase after a test breakfast), Alpha-GI (type II diabetics; MG 50 mg, individual patient): 33% and 40% and 37% and 62% (2×) and 25% and 59% and 71%
Hypoglycemia (decrease in the blood sugar increase after a test breakfast), Alpha-GI (type II diabetics; MG 100 mg, individual patient): 24% and 60% and 80% and 59% and 32% and 66% and 75% and 34% and 73%
action compared with bulk material (type II diabetics): considerably stronger action than bulk material
Hypoglycemia, MG 100 (type II diabetics; miglitol 100 mg on its own, individual patient): 66% and 75% and 34% and 80% and 59% and 32%
Hypoglycemia, MG 100, mean value (type II diabetics; miglitol 100 mg on its own): 57.7%
Hypoglycemia, MG 100, mean value (type II diabetics; miglitol 100 mg on its own, listed as miglitol): 58%
patients with semiliquid stools as far as diarrhea (type II diabetics; on its own, short-term experiments): 4 of 9 patients
symptoms after 50-75 g of sucrose (normal persons): abdominal pain and diarrhea occurred

Source: US20040110693A1, “Agent for treating diabetes mellitus” (priority 2001, published 2004)
